# Tested on: dopaminergic neurons (MPTP lesioning)
# Test: MPTP model of Parkinson's Disease in mice, concurrent dosing paradigm
# Format: in vivo
# Conditions: 10 mg/kg p.o. with MPTP (30 mg/kg i.p.) for 5 days plus 5 further days; male CD1 mice; anti-tyrosine hydroxylase immunostaining at 18 days
# Experimental: MPTP lesioning of dopaminergic neurons in mice was used as an animal model of Parkinson's Disease. Four week old male CD1 white mice were dosed i.p. with 30 mg/kg of MPTP for 5 days. Inventive compounds (4 mg/kg), or vehicle, were administered s.c. along with the MPTP for 5 days, as well as for an additional 5 days following cessation of MPTP treatment (Table IV). Inventive compounds (10 mg/kg), or vehicle, were also administered p.o. along with the MPTP for 5 days, as well as for an additional 5 days following cessation of MPTP treatment (Table V). At 18 days following MPTP treatment, the animals were sacrificed and the striata were dissected and homogenized. Immunostaining was performed on saggital and coronal brain sections using anti-tyrosine hydoxylase Ig to quantitate survival and recovery of dopaminergic neurons. In animals treated with MPTP and vehicle, a substantial loss of functional dopaminergic terminals was observed as compared to non-lesioned animals. In another protocol, test compounds were administered only subsequent to MPTP-induced lesioning. Thus, after animals were treated with MPTP for 5 days, an additional 3 days passed before beginning oral drug treatment on day 8. Animals were treated with inventive compounds (0.4 mg/kg), administered orally, once a day for 5 days total. On day 18, the animals were sacrificed and analyzed as described above. Tables IV and V present the percent recovery of dopaminergic neurons in the first (concurrent dosing) paradigms in animals receiving hydantoin derivative compounds.
# Tables IV and V, below, show the remarkable neuroregenerative effects of the inventive hydantoin derivative compounds illustrating the neurotrophic capability of these compounds as a class showing that lesioned animals receiving the hydantoin derivative compounds provide a remarkable recovery of TH-stained dopaminergic neurons.
row,SMILES,% Recovery of dopaminergic neurons
1,"O=C1[C@@H]2CCCN2C(=O)N1c1ccccc1-c1ccccc1 [Compound 2, (7aS)-2-(2′-Phenyl)phenylperhydropyrrolo[1,2-c]imidazole-1,3-dione]",38.40%

# Same assay, conditions: Mus musculus, Neuron, po, 432 h; 10 mg/kg p.o. with MPTP (30 mg/kg i.p.) for 5 days plus 5 further days; male CD1 mice; anti-tyrosine hydroxylase immunostaining at 18 days
row,SMILES,% recovery of dopaminergic neurons at 10 mg/kg
1,"CCCCN1C(=O)C2CCCCN2C1=O (stereo not shown) [Compound 74, 2-butyl-2,5,6,7,8,8a-hexahydro-2-azaindolizine-1,3-dione]",46.4%
2,"CCCCCCCN1C(=O)C2CCCCN2C1=O (stereo not shown) [Compound 41, 2-Heptyl-2,5,6,7,8,8a-hexahydro-2-azaindolizine-1,3-dione]",8.8%
3,"O=C1C2CCCN2C(=S)N1CCc1ccccc1 (stereo not shown) [Compound 8, 2-(2-phenylethyl)-3-thioxo-2,5,6,7,7a-pentahydro-2-azapyrrolizin-1-one]",42.5%
4,"O=C1C2CCCN2C(=S)N1Cc1ccccc1 (stereo not shown) [Compound 4, 2-benzyl-3-thioxo-2,5,6,7,7a-pentahydro-2-azapyrrolizin-1-one]",49.3%
5,"O=C1[C@@H]2CCCN2C(=O)N1c1ccc(C(F)(F)F)cc1 [Compound 3, (7aS)-2-(4-(Trifluoromethyl)phenyl)perhydropyrrolo[1,2-c]imidazole-1,3-dione]",78.8%
6,"CCCCCCCCN1C(=O)C2CCCCN2C1=O (stereo not shown) [Compound 42, 2-Octyl-2,5,6,7,8,8a-hexahydro-2-azaindolizine-1,3-dione]",17.4%
7,"O=C1C2CCCCN2C(=S)N1Cc1ccccc1 (stereo not shown) [Compound 39, 2-benzyl-3-thioxo-2,5,6,7,8,8a-hexahydro-2-azaindolizin-1-one]",11.2%
8,"O=C1C2CCCCN2C(=O)N1Cc1ccccc1 (stereo not shown) [Compound 38, 2-Benzyl-2,5,6,7,8,8a-hexahydro-2-azaindolizine-1,3-dione]",31.4%
9,"O=C1C2CCCCN2C(=S)N1CCc1ccccc1 (stereo not shown) [Compound 40, 2-(2-phenylethyl)-3-thioxo-2,5,6,7,8,8a-hexahydro-2-azaindolizin-1-one]",11%
10,"O=C1C2CCCCN2C(=O)N1c1ccccc1 (stereo not shown) [Compound 72, 2-phenyl-2,5,6,7,8,8a-hexahydro-2-azaindolizine-1,3-dione]",37.2%
11,"O=C1C2CCCCN2C(=S)N1CCCc1ccccc1 (stereo not shown) [Compound 43, 2-(3-phenylpropyl)-3-thioxo-2,5,6,7,8,8a-hexahydro-2-azaindolizin-1-one]",40.1%
12,"O=C1C2CCCN2C(=S)N1CCCc1ccccc1 (stereo not shown) [Compound 7, 2-(3-phenylpropyl)-3-thioxo-2,5,6,7,7a-pentahydro-2-azapyrrolizin-1-one]",37.5%

# Same assay, conditions: Mus musculus, Neuron, sc, 432 h; 4 mg/kg s.c. with MPTP (30 mg/kg i.p.) for 5 days plus 5 further days; male CD1 mice; anti-tyrosine hydroxylase immunostaining at 18 days
row,SMILES,% recovery of dopaminergic neurons at 4 mg/kg
1,"O=C1[C@@H]2CCCN2C(=O)N1c1cccc2ccccc12 [Compound 1, (7aS)-2-(1-Naphthyl)perhydropyrrolo[1,2-c]imidazole-1,3-dione]",32.2%

# Biological target: FKBP-12 peptidyl-prolyl isomerase (rotamase) (Homo sapiens, UniProt P62942)
# Test: Ki test procedure: inhibition of FKBP peptidyl-prolyl isomerase (rotamase) activity, chymotrypsin-coupled assay
# Format: biochemical
# Conditions: apparent Ki, substrate N-succinyl-Ala-Ala-Pro-Phe-p-nitroanilide
# Description: The binding to FBKP12 and inhibition of the peptidyl-prolyl isomerase (rotamase) activity of the compounds used in the inventive methods and pharmaceutical compositions can be evaluated by known methods described in the literature (Harding et al., Nature, 1989, 341:758-760; Holt et al. J. Am. Chem. Soc., 115:9923-9938). These values are obtained as apparent Ki's and are presented for representative compounds in TABLE III.
# The cis-trans isomerization of an alanine-proline bond in a model substrate, N-succinyl-Ala-Ala-Pro-Phe-p-nitroanilide, is monitored spectrophotometrically in a chymotrypsin-coupled assay, which releases para-nitroanilide from the trans form of the substrate. The inhibition of this reaction caused by the addition of different concentrations of inhibitor is determined, and the data is analyzed as a change in first-order rate constant as a function of inhibitor concentration to yield the apparent K1 values. […]
# The absorbance at 390 nm versus time is monitored for 90 seconds using a spectrophotometer and the rate constants are determined from the absorbance versus time data files.
# Sequence of FKBP-12 peptidyl-prolyl isomerase (rotamase) (P62942 whole entry): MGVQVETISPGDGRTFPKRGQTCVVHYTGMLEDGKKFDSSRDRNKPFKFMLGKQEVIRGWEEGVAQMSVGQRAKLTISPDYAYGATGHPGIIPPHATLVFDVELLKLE
row,Ki,SMILES
1,> 5 µM,"CCc1ccccc1N1C(=O)C2CCCN2C1=O (stereo not shown) [Compound 6, 2-(2-ethyl)phenyl-2,5,6,7,7a-pentahydro-2-azapyrrolizin-1,3-dione]"
2,> 10 µM,"O=C1[C@@H]2CCCN2C(=O)N1c1cccc2ccccc12 [Compound 1, (7aS)-2-(1-Naphthyl)perhydropyrrolo[1,2-c]imidazole-1,3-dione]"

# From patent publication US6974823B2, “Hydantoin derivative compounds, pharmaceutical compositions, and methods of using same” (GPI NIL Holdindgs, Inc., priority 1999, dated 2005)
